Measured values from ChEMBL document CHEMBL4765227, “Hit to lead optimization of a series of N-[4-(1,3-benzothiazol-2-yl)phenyl]acetamides as monoacylglycerol lipase inhibitors with potential anticancer activity” (Eur J Med Chem, 2016).

Key:
Format in all cases: functional
Settings in all cases: read-out: GI
CCRF-CEM = assay: Growth inhibition of human CCRF-CEM cells at 10 uM incubated for 48 hrs by sulforhodamine B assay relative to control
HL-60(TB) = assay: Growth inhibition of human HL-60(TB) cells at 10 uM incubated for 48 hrs by sulforhodamine B assay relative to control
MOLT-4 = assay: Growth inhibition of human MOLT-4 cells at 10 uM incubated for 48 hrs by sulforhodamine B assay relative to control
RPMI-8226 = assay: Growth inhibition of human RPMI-8226 cells at 10 uM incubated for 48 hrs by sulforhodamine B assay relative to control
SR = assay: Growth inhibition of human SR cells at 10 uM incubated for 48 hrs by sulforhodamine B assay relative to control
A549 = assay: Growth inhibition of human A549/ATCC cells at 10 uM incubated for 48 hrs by sulforhodamine B assay relative to control
HOP-62 = assay: Growth inhibition of human HOP-62 cells at 10 uM incubated for 48 hrs by sulforhodamine B assay relative to control
HOP-92 = assay: Growth inhibition of human HOP-92 cells at 10 uM incubated for 48 hrs by sulforhodamine B assay relative to control
NCI-H226 = assay: Growth inhibition of human NCI-H226 cells at 10 uM incubated for 48 hrs by sulforhodamine B assay relative to control
COLO 205 = assay: Growth inhibition of human COLO 205 cells at 10 uM incubated for 48 hrs by sulforhodamine B assay relative to control
HCC 2998 = assay: Growth inhibition of human HCC 2998 cells at 10 uM incubated for 48 hrs by sulforhodamine B assay relative to control
HCT-116 = assay: Growth inhibition of human HCT-116 cells at 10 uM incubated for 48 hrs by sulforhodamine B assay relative to control
HCT-15 = assay: Growth inhibition of human HCT-15 cells at 10 uM incubated for 48 hrs by sulforhodamine B assay relative to control
HT-29 = assay: Growth inhibition of human HT-29 cells at 10 uM incubated for 48 hrs by sulforhodamine B assay relative to control
SF-268 = assay: Growth inhibition of human SF-268 cells at 10 uM incubated for 48 hrs by sulforhodamine B assay relative to control
SF-295 = assay: Growth inhibition of human SF-295 cells at 10 uM incubated for 48 hrs by sulforhodamine B assay relative to control
SNB-19 = assay: Growth inhibition of human SNB-19 cells at 10 uM incubated for 48 hrs by sulforhodamine B assay relative to control
SNB-75 = assay: Growth inhibition of human SNB-75 cells at 10 uM incubated for 48 hrs by sulforhodamine B assay relative to control
U-251 = assay: Growth inhibition of human U-251 cells at 10 uM incubated for 48 hrs by sulforhodamine B assay relative to control
LOX IMVI = assay: Growth inhibition of human LOX IMVI cells at 10 uM incubated for 48 hrs by sulforhodamine B assay relative to control
Malme-3M = assay: Growth inhibition of human Malme-3M cells at 10 uM incubated for 48 hrs by sulforhodamine B assay relative to control
M14 = assay: Growth inhibition of human M14 cells at 10 uM incubated for 48 hrs by sulforhodamine B assay relative to control
SK-MEL-28 = assay: Growth inhibition of human SK-MEL-28 cells at 10 uM incubated for 48 hrs by sulforhodamine B assay relative to control
SK-MEL-5 = assay: Growth inhibition of human SK-MEL-5 cells at 10 uM incubated for 48 hrs by sulforhodamine B assay relative to control
UACC-257 = assay: Growth inhibition of human UACC-257 cells at 10 uM incubated for 48 hrs by sulforhodamine B assay relative to control
UACC-62 = assay: Growth inhibition of human UACC-62 cells at 10 uM incubated for 48 hrs by sulforhodamine B assay relative to control
IGROV-1 = assay: Growth inhibition of human IGROV-1 cells at 10 uM incubated for 48 hrs by sulforhodamine B assay relative to control
OVCAR-3 = assay: Growth inhibition of human OVCAR-3 cells at 10 uM incubated for 48 hrs by sulforhodamine B assay relative to control
OVCAR-4 = assay: Growth inhibition of human OVCAR-4 cells at 10 uM incubated for 48 hrs by sulforhodamine B assay relative to control
OVCAR-5 = assay: Growth inhibition of human OVCAR-5 cells at 10 uM incubated for 48 hrs by sulforhodamine B assay relative to control
NCI/ADR-RES = assay: Growth inhibition of human NCI/ADR-RES cells at 10 uM incubated for 48 hrs by sulforhodamine B assay relative to control
SK-OV-3 = assay: Growth inhibition of human SK-OV-3 cells at 10 uM incubated for 48 hrs by sulforhodamine B assay relative to control
786-0 = assay: Growth inhibition of human 786-0 cells at 10 uM incubated for 48 hrs by sulforhodamine B assay relative to control
ACHN = assay: Growth inhibition of human ACHN cells at 10 uM incubated for 48 hrs by sulforhodamine B assay relative to control
CAKI-1 = assay: Growth inhibition of human CAKI-1 cells at 10 uM incubated for 48 hrs by sulforhodamine B assay relative to control
RXF 393 = assay: Growth inhibition of human RXF 393 cells at 10 uM incubated for 48 hrs by sulforhodamine B assay relative to control
TK-10 = assay: Growth inhibition of human TK-10 cells at 10 uM incubated for 48 hrs by sulforhodamine B assay relative to control
PC-3 = assay: Growth inhibition of human PC-3 cells at 10 uM incubated for 48 hrs by sulforhodamine B assay relative to control
DU-145 = assay: Growth inhibition of human DU-145 cells at 10 uM incubated for 48 hrs by sulforhodamine B assay relative to control
MCF7 = assay: Growth inhibition of human MCF7 cells at 10 uM incubated for 48 hrs by sulforhodamine B assay relative to control
Hs-578T = assay: Growth inhibition of human Hs-578T cells at 10 uM incubated for 48 hrs by sulforhodamine B assay relative to control
BT-549 = assay: Growth inhibition of human BT-549 cells at 10 uM incubated for 48 hrs by sulforhodamine B assay relative to control
T47D = assay: Growth inhibition of human T47D cells at 10 uM incubated for 48 hrs by sulforhodamine B assay relative to control
MDA-MB-468 = assay: Growth inhibition of human MDA-MB-468 cells at 10 uM incubated for 48 hrs by sulforhodamine B assay relative to control

Compound: COc1ccc(NCC(=O)Nc2ccc(-c3nc4ccccc4s3)cc2)cc1
- inhibition of growth at 10 µM (CCRF-CEM): 40.8%
- inhibition of growth at 10 µM (HL-60(TB)): 20.9%
- inhibition of growth at 10 µM (MOLT-4): 33.7%
- inhibition of growth at 10 µM (RPMI-8226): 13.6%
- inhibition of growth at 10 µM (SR): 15.6%
- inhibition of growth at 10 µM (A549): 10.5%
- inhibition of growth at 10 µM (HOP-62): 14.6%
- inhibition of growth at 10 µM (HOP-92): 29.1%
- inhibition of growth at 10 µM (NCI-H226): 5.16%
- inhibition of growth at 10 µM (COLO 205): -6.9%
- inhibition of growth at 10 µM (HCC 2998): 3.49%
- inhibition of growth at 10 µM (HCT-116): 11.6%
- inhibition of growth at 10 µM (HCT-15): 10.1%
- inhibition of growth at 10 µM (HT-29): -8.15%
- inhibition of growth at 10 µM (SF-268): 10.5%
- inhibition of growth at 10 µM (SF-295): 3.2%
- inhibition of growth at 10 µM (SNB-19): 11.4%
- inhibition of growth at 10 µM (SNB-75): 25.4%
- inhibition of growth at 10 µM (U-251): 19.1%
- inhibition of growth at 10 µM (LOX IMVI): 8.68%
- inhibition of growth at 10 µM (Malme-3M): -26%
- inhibition of growth at 10 µM (M14): 0.16%
- inhibition of growth at 10 µM (SK-MEL-28): -11.1%
- inhibition of growth at 10 µM (SK-MEL-5): 2.74%
- inhibition of growth at 10 µM (UACC-257): -3.88%
- inhibition of growth at 10 µM (UACC-62): 0.37%
- inhibition of growth at 10 µM (IGROV-1): 7.74%
- inhibition of growth at 10 µM (OVCAR-3): 3.44%
- inhibition of growth at 10 µM (OVCAR-4): 12.8%
- inhibition of growth at 10 µM (OVCAR-5): 1.84%
- inhibition of growth at 10 µM (NCI/ADR-RES): -1.88%
- inhibition of growth at 10 µM (SK-OV-3): -7.58%
- inhibition of growth at 10 µM (786-0): 14.8%
- inhibition of growth at 10 µM (ACHN): -3.5%
- inhibition of growth at 10 µM (CAKI-1): -2.81%
- inhibition of growth at 10 µM (RXF 393): -1.89%
- inhibition of growth at 10 µM (TK-10): -8.6%
- inhibition of growth at 10 µM (PC-3): 12.9%
- inhibition of growth at 10 µM (DU-145): 0.77%
- inhibition of growth at 10 µM (MCF7): 35%
- inhibition of growth at 10 µM (Hs-578T): 2.83%
- inhibition of growth at 10 µM (BT-549): 15.2%
- inhibition of growth at 10 µM (T47D): 31.2%
- inhibition of growth at 10 µM (MDA-MB-468): 5.6%

Compound: O=C(CNc1c(Cl)cccc1Cl)Nc1ccc(-c2nc3ccccc3s2)cc1
- inhibition of growth at 10 µM (CCRF-CEM): 97.8%
- inhibition of growth at 10 µM (HL-60(TB)): 29.3%
- inhibition of growth at 10 µM (MOLT-4): 94.4%
- inhibition of growth at 10 µM (RPMI-8226): 40.2%
- inhibition of growth at 10 µM (SR): 89.3%
- inhibition of growth at 10 µM (A549): 14.3%
- inhibition of growth at 10 µM (HOP-62): -18.3%
- inhibition of growth at 10 µM (HOP-92): 5.78%
- inhibition of growth at 10 µM (NCI-H226): 45.6%
- inhibition of growth at 10 µM (COLO 205): 12.3%
- inhibition of growth at 10 µM (HCC 2998): 64.4%
- inhibition of growth at 10 µM (HCT-116): 70.1%
- inhibition of growth at 10 µM (HCT-15): 97.6%
- inhibition of growth at 10 µM (HT-29): 30.2%
- inhibition of growth at 10 µM (SF-268): 53.8%
- inhibition of growth at 10 µM (SF-295): 2.62%
- inhibition of growth at 10 µM (SNB-19): 26.1%
- inhibition of growth at 10 µM (SNB-75): 40.8%
- inhibition of growth at 10 µM (U-251): 72.3%
- inhibition of growth at 10 µM (LOX IMVI): 149%
- inhibition of growth at 10 µM (Malme-3M): 150%
- inhibition of growth at 10 µM (M14): 44.3%
- inhibition of growth at 10 µM (SK-MEL-28): -3.93%
- inhibition of growth at 10 µM (SK-MEL-5): 78.8%
- inhibition of growth at 10 µM (UACC-257): 3.54%
- inhibition of growth at 10 µM (UACC-62): 64.9%
- inhibition of growth at 10 µM (IGROV-1): 50.7%
- inhibition of growth at 10 µM (OVCAR-3): 45.6%
- inhibition of growth at 10 µM (OVCAR-4): 82.5%
- inhibition of growth at 10 µM (OVCAR-5): -10.4%
- inhibition of growth at 10 µM (NCI/ADR-RES): 36%
- inhibition of growth at 10 µM (SK-OV-3): 2.25%
- inhibition of growth at 10 µM (786-0): 75.9%
- inhibition of growth at 10 µM (ACHN): 57.7%
- inhibition of growth at 10 µM (CAKI-1): 71.2%
- inhibition of growth at 10 µM (RXF 393): 13.4%
- inhibition of growth at 10 µM (TK-10): -6.12%
- inhibition of growth at 10 µM (PC-3): 14.1%
- inhibition of growth at 10 µM (DU-145): 14.3%
- inhibition of growth at 10 µM (MCF7): 85.4%
- inhibition of growth at 10 µM (Hs-578T): 12.8%
- inhibition of growth at 10 µM (BT-549): 78%
- inhibition of growth at 10 µM (T47D): 119%
- inhibition of growth at 10 µM (MDA-MB-468): 107%
